Entries after “also recorded” stand apart in the source; their conditions may differ.
Key:
oral microorganisms = details: U.S. Pat. Nos. 7,494,980 and 8,778,889; cited from earlier work
[1] = tested on: biofilms that mimic supragingival or cariogenic plaque; details: cited from earlier work
mouse model of IBS = assay: Visceromotor reflex (VMR) response to colorectal distention (CRD) in a mouse model of IBS; type: in vivo; details: graded colorectal distention, KSL-W given intracolonically (FIG. 1), rifaximin FIG. 2
Procedure: Mouse pups at postnatal day 10 will receive a […] enema infusion with 0.5% acetic acid or saline. The pup will be gently held by hand with head down. A poly-ethylene tubing (PE-10) connected to a 100 ul Hamilton syringe is insert through the rectum into the distal colon about 1.5 cm from the anus. 20 μl of 0.5% acetic acid or saline is infused slowly (about second). The pups are put back with dam and wean at 3 weeks old. The mice are allowed to grow into adulthood (8-12 weeks) when they are ready for test of hypersensitivity (increased pain to graded painful stimulus).
Visceromotor reflex (VMR) and Abdominal Withdrawal Reflex (AWR) response to colorectal distention (CRD) for assessing visceral pain sensitivity. The VMR is a reflex measured using an electromyographic (EMG) recording obtained from the external oblique muscle. […] Then, 30-45 min later, the VMR response to CRD is measured by EMG.
Procedure of electrodes implantation: Under a cocktail of Ketamine/Xylazine (80:8 mg/kg body weight) or 1-2% isoflurane. adult mice undergo surgery to implant abdominal electrodes. The depth of anesthesia will be assessed by pinching the toes for a toe pinch response (negative) every 15 minutes during the surgical procedure. […]
EMG response to CRD: EMG is recorded from two externalized electrodes implanted in the external oblique muscle by using CED 1401 plus and Spike 2 software. […]

[2] = tested on: microbial balance in the colon; assay: Effect on microbial balance in the colon; type: in vivo; details: FIG. 1 cited
Procedure: Using a novel comprehensive, high-density DNA microarray (PhyloChip) a phylogenetic analysis of the microbial community of the large bowel was performed. […] Even more striking was the dramatic change in the ratio of Firmicutes relative to Bacteroidetes, where “IBS” animals were enriched more with Bacteroidetes and also contained a different composition of species within this phylum.

pathogenic bacteria = assay: Selectivity of the antimicrobial peptide for pathogenic versus beneficial bacteria

Molecule | antibacterial activity / inhibition of growth of oral microorganisms (oral microorganisms) | prevention of biofilm formation [1] | pain behavior (VMR response to colorectal distention) (mouse model of IBS) | microbial balance in the colon [2] | selectivity against pathogenic versus beneficial bacteria (pathogenic bacteria)
NH2-Lys-Lys-Val-Val-Phe-Lys-Val-Lys-Phe-Lys-CO NH2 (H-KKVVFKVKFK-NH2) [KSL, antimicrobial decapeptide] | possess a broad range of antibacterial activity; also recorded: inhibiting the growth of various oral microorganisms | effective in preventing the formation of biofilms that mimic supragingival or cariogenic plaque |  |  | 
CO[C@H]1/C=C/O[C@@]2(C)Oc3c(C)c(O)c4c(O)c(c5c(nc6cc(C)ccn65)c4c3C2=O)NC(=O)/C(C)=C\C=C\[C@H](C)[C@H](O)[C@@H](C)[C@@H](O)[C@@H](C)[C@H](OC(C)=O)[C@@H]1C [rifaximin, reference compound] |  |  | attenuates pain behavior |  | 
NH2-Lys-Lys-Val-Val-Phe-Trp-Val-Lys-Phe-Lys-CO NH2 (H-KKVVFWVKFK-NH2) [KSL-W, L-tryptophan analog of KSL; L-lysine at position six replaced with L-tryptophan] |  |  | attenuates pain behavior | resets the microbial balance in the colon | works against pathogenic bacteria but spares beneficial ones; also recorded: selective against pathogenic bacteria but not beneficial bacteria

Source: patent US20240010678A1, “METHOD OF TREATMENT OF IRRITABLE BOWEL SYNDROME” (THE JOHNS HOPKINS UNIVERSITY, priority 2020, published 2024)
